# From patent publication US6461997B1, “Triazole sulfones having herbicidal activity” (Monsanto Technology LLC, priority 1999, dated 2002)
# What was measured:
# AVEFA (wild oat) [1] = test: Pre-plant incorporated (PPI) herbicidal activity, cool season; assay type: in vivo, Avena fatua; settings: for PPI activity GR80, AVEFA: pre-plant incorporated, lowest tested rate with 80% or greater inhibition, about 14 days
# Protocol: (§1) In another set of tests, the pre-plant incorporated (PPI) activity of compounds of this invention was evaluated on the same species as for the pre-emergence tests described above. In the PPI tests the following procedure, designed to simulate PPI application, was used.
# (§2) A pre-prepared topsoil mixture (described above) was placed in a pot and compacted to a depth of 1.0 to 1.25 cm from the top of the pot. Seeds of each of several monocotyledonous and dicotyledonous annual plant species were placed on top of the soil. A sufficient quantity of soil to cover the seeds and level fill the pot was weighed into an open container. A known amount of the test compound was dissolved or suspended in an organic solvent and applied by spraying to this cover soil. The cover soil was thoroughly mixed to distribute the test compound throughout the cover soil, and was then applied as a cover layer over the seeds. Untreated soil was used as a cover layer for control pots. After treatment the plants were placed in a greenhouse where they received 0.64 cm of overhead irrigation. All subsequent watering consisted of a light overhead mist and/or subirrigation as needed for germination and growth. Tables 9 and 10 below relate to warm season plant species which were placed after pre-emergence treatment in a greenhouse with a 30/21° C. day/night temperature regime. Tables 11 and 12 below relates to cool season plant species placed after pre-emergence treatment in a greenhouse or growth chamber with an 18/13° C. day/night temperature regime. Only the compounds of Examples 1, 6, 8, 11, 13 and 15-20 were included in PPI tests.
# (§3) Approximately 14 days after planting and treating, the plants were observed and herbicidal efficacy recorded as percent inhibition by comparison with untreated plants.
# DATST (jimsonweed) = test: Pre-emergence herbicidal activity, warm season; assay type: in vivo, Datura stramonium; settings: GR80 = lowest tested rate (300, 100, 30, 10 g/ha) with 80% or greater inhibition; approx. 14 days after treating; 30/21° C.
# In short: (§4)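 GR80 values derive from percent inhibition relative to untreated plants, read roughly 14 days after sowing and pre-emergence soil-surface treatment (compound in 50:50 acetone/water; rates typically 10, 30, 100, 300 g/ha). Warm-season weeds grew at 30/21° C day/night, cool-season ones at 18/13° C; an asterisk marks activity without reaching 80% at the highest rate.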
# KCHSC (kochia) [2] = test: Pre-emergence herbicidal activity, cool season; assay type: in vivo, Kochia scoparia; settings: lowest tested rate with 80% or greater inhibition; rates 300, 100, 30, 10 g/ha; about 14 days
# Protocol: Tables 5 to 8 summarize results of tests conducted as described below to determine the pre-emergence herbicidal activity, in the form of a GR80 value, of illustrative compounds of this invention. […] Compounds of the invention were typically applied at rates of 300, 100, 30, and 10 g/ha. Where herbicidal activity was evident but 80% inhibition was not achieved at the highest rate tested, an asterisk (*) is shown in the following tables.
# The pre-emergence tests were conducted by the following procedure. Topsoil was sieved to pass through a 1.27 cm screen. Fertilizer was added to the topsoil and the mixture was then sterilized by heating. The topsoil mixture was placed in a pot and compacted to a depth of 1.0 to 1.25 cm from the top of the pot. Seeds of each of several monocotyledonous and dicotyledonous annual plant species were placed on top of the soil. Additional soil was subsequently placed over the seeds to level-fill the pot. A known amount of each test compound dissolved or suspended in an appropriate organic solvent was diluted with a 50:50 mix of acetone and water and applied to the surface of the soil. After treatment the plants were placed in a greenhouse where they received 0.64 cm of overhead irrigation. All subsequent watering consisted of a light overhead mist and/or subirrigation as needed for germination and growth. Tables 5 and 6 below relate to warm season plant species which were placed after pre-emergence treatment in a greenhouse with a 30/21° C. day/night temperature regime. Tables 7 and 8 below relates to cool season plant species placed after pre-emergence treatment in a greenhouse or growth chamber with an 18/13° C. day/night temperature regime.
# as §3
# The plant species usually regarded as weeds which were utilized in the tests are identified in the tables below according to the following legend, in which “d” indicates a dicotyledonous species and “m” a monocotyledonous species. All monocotyledonous species included in the tests herein are grasses.
# BROTE (downy brome) = test: Pre-emergence herbicidal activity, cool season; assay type: in vivo, Bromus tectorum; settings: GR80 = lowest tested rate (300, 100, 30, 10 g/ha) with 80% or greater inhibition; approx. 14 days after treating; 18/13° C.
# In short: as §4
# LOLMG (annual ryegrass) = test: Pre-emergence herbicidal activity, cool season; assay type: in vivo, Lolium multiflorum; settings: GR80 = lowest tested rate (300, 100, 30, 10 g/ha) with 80% or greater inhibition; approx. 14 days after treating; 18/13° C.
# In short: as §4
# AVEFA (wild oat) [3] = test: Pre-emergence herbicidal activity, cool season; assay type: in vivo, Avena fatua; settings: GR80 = lowest tested rate (300, 100, 30, 10 g/ha) with 80% or greater inhibition; approx. 14 days after treating; 18/13° C.
# In short: as §4
# CONAR (field bindweed) [4] = test: Pre-emergence herbicidal activity, warm season; assay type: in vivo, Convolvulus arvensis; settings: GR80 = lowest tested rate (300, 100, 30, 10 g/ha) with 80% or greater inhibition; approx. 14 days after treating; 30/21° C.
# In short: as §4
# [5] = test system: IPOSS (annual morningglory); test: Pre-plant incorporated (PPI) herbicidal activity, warm season; assay type: in vivo, Ipomoea spp.; settings: PPI application
# Protocol: as §1, §2, §3
# [6] = test system: AGRRE (quackgrass (seedling)); test: Pre-emergence herbicidal activity, cool season; assay type: in vivo, Elymus repens; settings: GR80 = lowest tested rate (300, 100, 30, 10 g/ha) with 80% or greater inhibition; approx. 14 days after treating; 18/13° C.
# In short: as §4
# POROL (common purslane) = test: Pre-plant incorporated (PPI) herbicidal activity, warm season; assay type: in vivo, Portulaca oleracea; settings: GR80 = lowest tested rate with 80% or greater inhibition, approx. 14 days after treating, 30/21° C.
# Protocol: as §1, §2, §3
# KCHSC (kochia) [7] = test: Pre-plant incorporated (PPI) herbicidal activity, cool season; assay type: in vivo, Kochia scoparia
# Protocol: as §1, §2, §3
# [8] = test system: CIRAR (canada thistle (seedling)); test: Pre-plant incorporated (PPI) herbicidal activity, warm season; assay type: in vivo, Cirsium arvense; settings: GR80 = lowest tested rate with 80% or greater inhibition, approx. 14 days after treating, 30/21° C.
# Protocol: as §1, §2, §3
# CONAR (field bindweed) [9] = test: as above; assay type: in vivo, Convolvulus arvensis; settings: GR80 = lowest tested rate with 80% or greater inhibition, approx. 14 days after treating, 30/21° C.
# Protocol: as §1, §2, §3
# ABUTH (velvetleaf) = test: Pre-emergence herbicidal activity, warm season; assay type: in vivo, Abutilon theophrasti; settings: GR80 = lowest tested rate (300, 100, 30, 10 g/ha) with 80% or greater inhibition; approx. 14 days after treating; 30/21° C.
# In short: as §4
# [10] = weed, PPI application, 100 g/ha
# [11] = weed, PPI application, 300 g/ha
# [12] = weed, PPI application, 900 g/ha
Structure (SMILES),"Percent inhibition AVEFA (AVEFA (wild oat) [1]; weed, PPI application, 30 g/ha)",Percent inhibition AVEFA (AVEFA (wild oat) [1]; [10]),Percent inhibition AVEFA (AVEFA (wild oat) [1]; [11]),Percent inhibition AVEFA (AVEFA (wild oat) [1]; [12]),Pre-emergence activity (GR80) DATST (DATST (jimsonweed)),"Pre-emergence activity GR80, KCHSC (KCHSC (kochia) [2])",Pre-emergence activity (GR80) BROTE (BROTE (downy brome)),Pre-emergence activity (GR80) LOLMG (LOLMG (annual ryegrass)),Pre-emergence activity (GR80) AVEFA (AVEFA (wild oat) [3]),Pre-emergence activity (GR80) CONAR (CONAR (field bindweed) [4]),Percent inhibition IPOSS ([5]; 30 g/ha),Percent inhibition IPOSS ([5]; 100 g/ha),Percent inhibition IPOSS ([5]; 300 g/ha),Percent inhibition IPOSS ([5]; 900 g/ha),Pre-emergence activity (GR80) AGRRE [6],"PPI activity GR80, AVEFA (AVEFA (wild oat) [1])",PPI activity (GR80) POROL (POROL (common purslane)),PPI activity (GR80) CIRAR [8],PPI activity (GR80) CONAR (CONAR (field bindweed) [9]),other results
CCN(CC)C(=O)n1cnc(S(=O)(=O)C(F)(F)SC)n1 [Example 9],0%,20%,100%,100%,300 g/ha,300 g/ha,100 g/ha,"* (activity observed, at least at highest rate, but <80% inhibition)",300 g/ha,300 g/ha,0%,100%,40%,100%,–,–,–,–,–,–
CCN(CC)C(=O)n1cnc(S(=O)(=O)C(F)(F)C(F)(F)Br)n1 [Example 4],10%,10%,50%,100%,300 g/ha,100 g/ha,300 g/ha,300 g/ha,30 g/ha,–,0%,80%,60%,100%,30 g/ha,–,–,–,–,–
CCN(CC)C(=O)n1cnc(S(=O)(=O)C(F)(F)F)n1 [Example 2],0%,10%,20%,50%,300 g/ha,300 g/ha,300 g/ha,300 g/ha,–,300 g/ha,–,20%,100%,95%,100 g/ha,–,–,–,–,–
C=C(CC(F)(F)S(=O)(=O)c1ncn(C(=O)N(CC)CC)n1)C[Si](C)(C)C [Example 20],0%,0%,0%,60%,–,[empty],–,–,–,"* (activity observed, at least at highest rate, but <80% inhibition)",–,–,–,–,–,300 g/ha,100 g/ha,100 g/ha,"* (activity observed, at least at highest rate, but <80% inhibition)","Percent inhibition AVEFA (AVEFA (wild oat) [1]; weed, PPI application, 10 g/ha): 0%; PPI activity GR80, KCHSC (KCHSC (kochia) [7]; pre-plant incorporated, lowest tested rate with 80% or greater inhibition, about 14 days): [empty]; Percent inhibition KCHSC (KCHSC (kochia) [7]; weed, PPI application, 10 g/ha): 50%; Percent inhibition KCHSC (KCHSC (kochia) [7]; weed, PPI application, 30 g/ha): 50%; Percent inhibition KCHSC (KCHSC (kochia) [7]; [10]): 100%; Percent inhibition KCHSC (KCHSC (kochia) [7]; [11]): 100%; Percent inhibition KCHSC (KCHSC (kochia) [7]; [12]): 100%; Pre-emergence activity (GR80) ABUTH (ABUTH (velvetleaf)): 300 g/ha"
CCN(CC)C(=O)n1cnc(S(=O)(=O)C(F)(F)Cl)n1 [Example 3],20%,40%,100%,80%,100 g/ha,300 g/ha,"* (activity observed, at least at highest rate, but <80% inhibition)",–,–,300 g/ha,0%,50%,100%,80%,–,–,–,–,–,–
C=C(Br)CC(F)(F)S(=O)(=O)c1ncn(C(=O)N(CC)CC)n1 [Example 19],–,–,–,–,"* (activity observed, at least at highest rate, but <80% inhibition)",–,"* (activity observed, at least at highest rate, but <80% inhibition)",300 g/ha,"* (activity observed, at least at highest rate, but <80% inhibition)","* (activity observed, at least at highest rate, but <80% inhibition)",–,–,–,–,"* (activity observed, at least at highest rate, but <80% inhibition)",300 g/ha,100 g/ha,300 g/ha,300 g/ha,"inhibition at 10 g/ha (AVEFA (wild oat) [1]; Avena fatua, weed, PPI application, 10 g/ha, read-out: Percent inhibition AVEFA): 0%; inhibition at 30 g/ha (AVEFA (wild oat) [1]; Avena fatua, weed, PPI application, 30 g/ha, read-out: Percent inhibition AVEFA): 0%; inhibition at 100 g/ha (AVEFA (wild oat) [1]; Avena fatua, weed, PPI application, 100 g/ha, read-out: Percent inhibition AVEFA): 30%; inhibition at 300 g/ha (AVEFA (wild oat) [1]; Avena fatua, weed, PPI application, 300 g/ha, read-out: Percent inhibition AVEFA): 70%; inhibition at 900 g/ha (AVEFA (wild oat) [1]; Avena fatua, weed, PPI application, 900 g/ha, read-out: Percent inhibition AVEFA): 60%; inhibition at 10 g/ha (KCHSC (kochia) [7]; Bassia scoparia, weed, PPI application, 10 g/ha, read-out: Percent inhibition KCHSC): 0%; inhibition at 30 g/ha (KCHSC (kochia) [7]; Bassia scoparia, weed, PPI application, 30 g/ha, read-out: Percent inhibition KCHSC): 20%; inhibition at 100 g/ha (KCHSC (kochia) [7]; Bassia scoparia, weed, PPI application, 100 g/ha, read-out: Percent inhibition KCHSC): 80%; inhibition at 300 g/ha (KCHSC (kochia) [7]; Bassia scoparia, weed, PPI application, 300 g/ha, read-out: Percent inhibition KCHSC): 80%; inhibition at 900 g/ha (KCHSC (kochia) [7]; Bassia scoparia, weed, PPI application, 900 g/ha, read-out: Percent inhibition KCHSC): 100%"
